Source: PubChem BioAssay (NCI)
Values joined by “and” are separate entries in the source; they are usually repeats but may differ in a detail not shown here. Identical values can stand only once.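 Compound exposure: 48 hours, 5 concentrations, 96-well plates. GI50 is the concentration that inhibits growth by half. TGI denotes the concentration required for complete inhibition of growth.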 Where a SMILES comes first, the peptide text is derived from it. [ ]: non-standard residue; d: D form. Phe(4-Cl) = N[CH](Cc1ccc(Cl)cc1)C(=O)O

Legend:
Experiment in all cases: NCI anticancer screen, dose series, 48 h
MDA-N = tested on: MDA-N
DMS 114 small cell lung = tested on: DMS 114 small cell lung
DMS 273 small cell lung = tested on: DMS 273 small cell lung
LXFL 529 NSCLC = tested on: LXFL 529 NSCLC
M19-MEL melanoma = tested on: M19-MEL melanoma
HOP-18 NSCLC = tested on: HOP-18 NSCLC
RXF-631 renal = tested on: RXF-631 renal
SNB-78 CNS = tested on: SNB-78 CNS
XF 498 CNS = tested on: XF 498 CNS

SMILES	TGI (MDA-N)	TGI (DMS 114 small cell lung) [µM]	TGI (DMS 273 small cell lung) [µM]	TGI (LXFL 529 NSCLC) [µM]	TGI (M19-MEL melanoma) [µM]	GI50 (HOP-18 NSCLC) [µM]	TGI (HOP-18 NSCLC) [µM]	GI50 (LXFL 529 NSCLC) [µM]	TGI (RXF-631 renal) [µM]	TGI (SNB-78 CNS) [µM]	TGI (XF 498 CNS) [µM]	GI50 (MDA-N) [µM]
O=C1NC(=O)c2ccc([N+](=O)[O-])c3cccc1c23	26.8 µM											
Nc1ccc(/C=C/c2ccnc3ccccc23)cc1		45.8	48.9	58.7	90							
CC(=O)[CH-]C(=O)c1ccccc1.CC(=O)[CH-]C(=O)c1ccccc1.O=C([O-])c1ccc([O-])cc1.O=C([O-])c1ccc([O-])cc1.[Ti+4]				> 100		68.8	> 100	31.1				
C[N+](C)(C)CC1CCCC(C[N+](C)(C)C)C1=O (stereo unspecified)	9.44 µM	3.49	10.1	0.392	2.33		1		47.4	5.88	0.898	
CCCCCCCCCCCCCC1CCC(CC)N1 (stereo unspecified)		17.4	29.1	32.6	10.6		30.9			30.4		
COc1ccc2c(c1)C=C([N+](=O)[O-])C(C1OC(C)(C)OC1C1COC(C)(C)O1)O2 (stereo unspecified)		8.55	9.22	13.8	3.31		42			11.8	22.9	
CC(C)(C)OC(=O)Cc1ccc2c(ccn2Cc2ccccc2)c1		> 100	> 100	> 100	> 100		> 100		> 100	> 100		
CN(C)CCNC(=O)c1cccc(C(=O)Nc2ccccc2)c1[N+](=O)[O-]	> 100 µM											
CCC1(O)C(=O)OCc2c1cc1n(c2=O)Cc2cc3ccc(C=O)cc3nc2-1 (stereo unspecified)	23.7 µM and 36.4 µM	20.5	3.89	> 100	19.8		> 100		31.7	98.2	19.2	3.9
CC(C)N(C(=O)C12CC3CC(CC(C3)C1)C2)C(C)C		> 50	> 50	> 50	> 50		> 50			> 50		
CC1(C)C2CC(O)C1(C)CC2=O (stereo unspecified)	> 100 µM											
CC[O-].CC[O-].O=C1c2ccccc2C(=O)c2c(O)ccc([O-])c21.O=C1c2ccccc2C(=O)c2c(O)ccc([O-])c21.[Ti+4]		> 100	> 100	> 100	73.4	74.4	> 100			> 100		
COc1cc2oc(-c3ccc(O)cc3)cc(=O)c2c(OC)c1OC	> 100 µM											
O=S(=O)(/N=S(/Nc1ccccc1)C(Cl)Cl)c1ccccc1 (stereo unspecified)	> 100 µM											
N#Cc1nc(C2OC(COC(=O)c3ccccc3)C(OC(=O)c3ccccc3)C2OC(=O)c2ccccc2)oc1N (stereo unspecified)		> 100	> 100		> 100		> 100			> 100		
CC(O)C(NC(=O)C(Cc1ccccc1)NC(=O)C(NC(=O)C(CCCCN)NC(=O)C(Cc1c[nH]c2ccccc12)NC(=O)C(Cc1ccc(O)cc1)NC(=O)C(Cc1ccc(Cl)cc1)NC(=O)C(N)Cc1ccccc1)C(C)O)C(N)=O (stereo unspecified) (H-F[Phe(4-Cl)]YWKTFT-NH2; configuration not given here)		37.8	> 100	39.4	40.2				42.4	61	28.9	
O=C(O)CN(c1ccccc1)S(=O)(=O)c1ccccc1[N+](=O)[O-]			> 100	> 100	> 100		> 100		> 100		> 100	
Cc1ccc(S(=O)(=O)n2c(-c3ccccc3)c(-c3ccccc3)c3ccccc32)cc1		> 100	> 100	> 100	> 100		> 100				> 100	
c1ccc(C2=NNC3c4ccccc4-c4ccccc4N3C2)cc1 (stereo unspecified)	> 100 µM											
CN/N=C(/CCN1CCCC1)CC(c1ccccc1)c1c(O)c2ccccc2oc1=O (stereo unspecified)	> 100 µM	> 100	> 100	> 100	> 100		> 100		> 100	> 100	> 100	
COc1ccc2c(c1)CCC1C3(CCCC21C)OCCO3 (stereo unspecified)			40.3	44.9	37.7		64.8		> 100	73.9		
O=C1c2ccccc2-c2c1c1ccccc1c(=O)n2Cc1ccccc1	> 100 µM											
Cc1ccc(N(C(=O)CC(=O)NN)C(=O)c2ccccc2Cl)cc1		> 100	> 100	> 100	> 100		> 100		> 100	> 100	> 100	
Cc1cc(C)nc(NS(=O)(=O)c2ccc(Nc3c4ccccc4nc4c(C(=O)Nc5ccc(S(=O)(=O)Nc6cc(C)on6)cc5)cccc34)cc2)n1		35.3	55.8	33	47.2		53.4			> 100	53.5	
